Results on one compound are retold here after patent publication US11912676B1, “N'-[(4-chlorobenzoyl)oxy]-1,3-benzothiazole-2-carboximidamide as an antitumor and antimicrobial compound” (KING FAISAL UNIVERSITY, priority 2023, dated 2024).

In series [1] the test system is human osteosarcoma cells (MG-63). The series is described as follows: Cytotoxicity by SRB assay, MG-63 cells. The format is cell-based. The settings on record: 0.01 μM to 100 μM, 72 h. On the procedure: (§1) The human prostate cancer cells (PC3) and human osteosarcoma cells (MG-63) were obtained from Nawah Scientific Inc. (Mokatam, Cairo, Egypt) and cultured in DMEM (Dulbecco's modified eagle's medium), Gibco, USA, supplemented with fetal bovine serum (FBS) at a concentration of 10% and 100 U/mL of penicillin and streptomycin (PS). The Cells were incubated at 37° C. in a humidified environment that contained 5% CO2. Cells were seeded in 96-well plates as aliquots of 100 μL cell suspension and incubated in a complete media for 24 h. afterward, cells were treated with N′-[(4-chlorobenzoyl)oxy]-1,3-benzothiazole-2-carboximidamide at diverse concentrations ranging from 0.01 μM to 100 μM for 72 h. Then, cells were fixed at 4° C. for one hour with 150 μL of 10% trichloroacetic acid (TCA). After washing the cells five times with distilled water, 70 μL of sulforhodamine (SRB) solution (0.4% w/v) was added and incubated for 10 min at room temperature in a dark place. […] Then, 150 μL of Tris pH 10.5 (10 mM) was added, and the absorbance was measured at 540 nm using a BMG LABTECH®--FLUOstar Omega microplate reader (Ortenberg, Germany). Half maximal inhibitory concentrations (IC50) values were calculated for each experiment using GraphPad Prism 6 software. […] The inhibition was calculated using the following equation: Inhibition %=100−Average Viability
A general note: Sulforhodamine B stains cellular protein and so reports cell mass.

In series [2] the test system is human prostate cancer cells (PC3). The series can be described thus: Cytotoxicity by SRB assay, PC3 cells. It counts as cell-based. The settings on record: 0.01 μM to 100 μM, 72 h. On the procedure: as §1

`N/C(Cc1nc2ccccc2s1)=N\OC(=O)c1ccc(Cl)cc1` yielded a melting point of 160 to 162 °C. Besides, the “antiproliferative activity against MG-63 cells” value in series [1] is recorded as “excellent antiproliferative activities”. In addition, the “antiproliferative activity against PC3 cells” value in series [2] was “excellent antiproliferative activities”.

One may read the melting point as the temperature, or range, at which the solid turns liquid.
